# Test results: patent US5225566A, “Indazolanonyl derivative of benzopyran” (American Home Products Corporation, priority 1992, dated 1993)
# Columns and labels:
# [1] = system: isolated rat bladder strips; assay: Inhibition of contractions in isolated rat bladder strips; parameters: species or system rat (Sprague-Dawley); conditions: for IC50: 0.5 h, additional 15 mM KCl, 30 min challenge
# From the text: In addition, smooth muscle relaxing activity of the compounds of this invention was established in accordance with standard pharmaceutically accepted test procedures in representative compounds as follows:
# Sprague-Dawley rats (150-200 g) are rendered unconscious by CO2 asphyxiation and then euthanized by cervical dislocation. The bladder is removed into warm (37 deg.C.) physiological salt solution (PSS) of the following composition (mM): NaCl, 118.4; KCl, 4.7; CaCl2, 2.5; […]; NaHCO3, 24.9; KH2 PO4, 1.2; glucose, 11.1; EDTA, 0.023; gassed with […]; pH 7.4. The bladder is opened and then cut into strips 1-2 mm in width and 7-10 mm in length. The strips are subsequently suspended in a 10 ml tissue bath under an initial resting tension of 1.5 g. The strips are held in place by two surgical clips one of which is attached to fixed hook while the other is attached to an isometric force transducer. […] The carbachol is then washed out and the tissue allowed to relax to its resting level of activity. Following 1 further 30 min period of recovery an additional 15 mM KCl are introduced into the tissue bath. This increase in KCl concentration results in a large increase in the amplitude of spontaneous contractions (and initiation of contractions in previously quiescent strips) superimposed upon a small increase in basal tone. Following stabilization of this enhanced level of contractile activity, incremental increases in the concentration of test compound or vehicle are introduced into the tissue bath. Contractile activity is measured for each compound or vehicle concentration during the last min of a 30 min challenge.
# Isometric force developed by the bladder strips is measured using a […] to elicit 50% inhibition of pre-drug contractile activity (IC50 concentration) is calculated from this concentration-response curve. The maximum percentage inhibition of contractile activity evoked by a test compound is also recorded for concentrations of test compound<or equal to 30 uM.
# [2] = system: spontaneously hypertensive rats (SHR); assay: Blood pressure lowering and heart rate in conscious spontaneously hypertensive rats, oral; type: in vivo, rat (male Okamoto-Aoki SHR)
# From the text: The blood pressure lowering activity of the compounds of this invention was established in accordance with standard pharmaceutically accepted test procedures in representative compounds as follows:
# Male Okamoto-Aoki spontaneously hypertensive rats (SHR) ranging in weight from 250-400 g were anesthetized with halothane. Their left femoral arteries and veins were cannulated with polyethylene tubing of the appropriate size (i.d. 0.023", o.d. 0.038"). Each animal was placed in a Bollman cage, and the tail, along with two cannulas, was extended through a hole in one end of the cage. The tail was taped securely to a firm rubber board to prevent the rat from turning in its cage to dislodge the cannulas. The femoral arterial cannula was connected to a Statham pressure transducer which in turn was attached to a polygraph for recording arterial pressure and pulse rate. The pulse rate was considered to be the heart rate.
# After the blood pressure has stabilized (usually 2 hours after cessation of the anesthesia), standard agonists were injected by the i.v. route. The doses administered were: isoproterenol 0.5 μg/kg, adrenaline 2.0 μg/kg, tyramine 200 μg/kg and angiotensin-I 0.25 μg/kg. The agonists were given in random order except that tyramine was never preceded by isoproterenol as the response to tyramine seemed to be blunted after a prior injection of isoproterenol. Enough time was allowed for the BP to return to preinjection levels before the test compound was administered by gastric lavage. The time of drug administration was designated as time zero. Heart rate and blood pressure were recorded at 5,10,15,30,45 and 60 minutes and hourly thereafter for a period of 4 hours after drug administration. At 1 and 2 hours post-drug the agonists were again injected at the same concentration and in the same order as during the control period.
# For each dose, the maximum fall in blood pressure was given in mm Hg and also expressed as a percentage decrease compared to pretreatment control values. Linear regression on the maximum decrease in mean arterial blood pressure at each dose was used to calculate the ED30 (the dose which would lower mean arterial pressure by 30%). A decrease in mean arterial blood pressure of 30% reduces the blood pressure from the hypertensive to the normotensive range.
compound,measurement,setting,value
"Cc1ccc2[nH]n([C@@H]3c4cc(OC(F)(F)F)ccc4OC(C)(C)[C@H]3O)c(=O)c2c1 [Example 8, (-)-2-[(3S,4R)-3-Hydroxy-2,2-dimethyl-6-trifluoromethoxy-chroman-4-yl]-5-methyl-1,2-dihydro-indazol-3-one]",IC50,[1],11 nM
"CC1(C)Oc2ccc(OC(F)(F)F)cc2[C@H](n2[nH]c3ccccc3c2=O)[C@H]1O [Example 7, (+)-2-[(3R,4S)-3-Hydroxy-2,2-dimethyl-6-trifluoromethoxychroman-4-yl]-1,2-dihydro-indazol-3-one]",Max Δ BP (mean arterial blood pressure),"[2]; 0.1 mg/kg p.o., 5 m",-12 mm Hg
same,"Max Δ BP, %","[2]; 0.1 mg/kg p.o., 5 m",-7 ± 1%
same,Max Δ HR (heart rate),"[2]; 0.1 mg/kg p.o., 5 m",+39 beats/min
same,"Max Δ HR, %","[2]; 0.1 mg/kg p.o., 5 m",+10 ± 3%
same,Max Δ BP (mean arterial blood pressure),"[2]; 1.0 mg/kg p.o., 30 m",-96 mm Hg
same,"Max Δ BP, %","[2]; 1.0 mg/kg p.o., 30 m",-51 ± 1%
same,Max Δ HR (heart rate),"[2]; 1.0 mg/kg p.o., 30 m",+114 beats/min
same,"Max Δ HR, %","[2]; 1.0 mg/kg p.o., 30 m",+31 ± 7%
same,Δ BP (mean arterial blood pressure),"[2]; 1.0 mg/kg p.o., 4 h",-20 mm Hg
same,"Δ BP, %","[2]; 1.0 mg/kg p.o., 4 h",-11 ± 2%
same,Δ HR (heart rate),"[2]; 1.0 mg/kg p.o., 4 h",+38 beats/min
same,"Δ HR, %","[2]; 1.0 mg/kg p.o., 4 h",+10 ± 4%
"CC1(C)Oc2ccc(OC(F)(F)F)cc2[C@@H](n2[nH]c3ccccc3c2=O)[C@@H]1O [Example 1, (-)-2-[(3S,4R)-3-Hydroxy-2,2-dimethyl-6-trifluoromethoxy-chroman-4-yl]-1,2-dihydro-indazol-3-one]",Max Δ BP (mean arterial blood pressure),"[2]; 0.1 mg/kg p.o., 15 m",-41 mm Hg
same,"Max Δ BP, %","[2]; 0.1 mg/kg p.o., 15 m",-21 ± 3%
same,Max Δ HR (heart rate),"[2]; 0.1 mg/kg p.o., 15 m",+58 beats/min
same,"Max Δ HR, %","[2]; 0.1 mg/kg p.o., 15 m",+16 ± 6%
same,Δ BP (mean arterial blood pressure),"[2]; 0.1 mg/kg p.o., 2 h",-13 mm Hg
same,"Δ BP, %","[2]; 0.1 mg/kg p.o., 2 h",-7 ± 2%
same,Δ HR (heart rate),"[2]; 0.1 mg/kg p.o., 2 h",-29 beats/min
same,"Δ HR, %","[2]; 0.1 mg/kg p.o., 2 h",-7 ± 3%
same,Max Δ BP (mean arterial blood pressure),"[2]; 0.3 mg/kg p.o., 30 m",-102 mm Hg
same,"Max Δ BP, %","[2]; 0.3 mg/kg p.o., 30 m",-55 ± 2%
same,Max Δ HR (heart rate),"[2]; 0.3 mg/kg p.o., 30 m",+90 beats/min
same,"Max Δ HR, %","[2]; 0.3 mg/kg p.o., 30 m",+25 ± 6%
same,Δ BP (mean arterial blood pressure),"[2]; 0.3 mg/kg p.o., 4 h",-22 mm Hg
same,"Δ BP, %","[2]; 0.3 mg/kg p.o., 4 h",-12 ± 4%
same,Δ HR (heart rate),"[2]; 0.3 mg/kg p.o., 4 h",+36 beats/min
same,"Δ HR, %","[2]; 0.3 mg/kg p.o., 4 h",+10 ± 4%
same,Max Δ BP (mean arterial blood pressure),"[2]; 1.0 mg/kg p.o., 45 m",-112 mm Hg
same,"Max Δ BP, %","[2]; 1.0 mg/kg p.o., 45 m",-59 ± 4%
same,Max Δ HR (heart rate),"[2]; 1.0 mg/kg p.o., 45 m",+41 beats/min
same,"Max Δ HR, %","[2]; 1.0 mg/kg p.o., 45 m",+11 ± 12%
same,Δ BP (mean arterial blood pressure),"[2]; 1.0 mg/kg p.o., 4 h",-92 mm Hg
same,"Δ BP, %","[2]; 1.0 mg/kg p.o., 4 h",-47 ± 15%
same,Δ HR (heart rate),"[2]; 1.0 mg/kg p.o., 4 h",-31 beats/min
same,"Δ HR, %","[2]; 1.0 mg/kg p.o., 4 h",-9 ± 13%
same,IC50,[1],44 nM
same,inhibition at 0.3 µM,"[1]; at 0.3 μM, read-out: Inhibition of Force (%) at (x) μM",100%
"Cn1c2ccccc2c(=O)n1[C@@H]1c2cc(OC(F)(F)F)ccc2OC(C)(C)[C@H]1O [Example 2, (-)-2-[(3S,4R)-3-Hydroxy-2,2-dimethyl-6-trifluoromethoxy-chroman-4-yl]-1-methyl-1,2-dihydro-indazol-3-one]",Max Δ BP (mean arterial blood pressure),"[2]; 1.0 mg/kg p.o., 45 m",-22 mm Hg
same,"Max Δ BP, %","[2]; 1.0 mg/kg p.o., 45 m",-13 ± 2%
same,Max Δ HR (heart rate),"[2]; 1.0 mg/kg p.o., 45 m",+17 beats/min
same,"Max Δ HR, %","[2]; 1.0 mg/kg p.o., 45 m",+4 ± 1%
same,IC50,[1],9000 nM
same,inhibition at 10 µM,"[1]; at 10 μM, read-out: Inhibition of Force (%) at (x) μM",58%
